Patent publication US10100097B2, “GIP-GLP-1 dual agonist compounds and methods” (Zealand Pharma A/S, priority 2012, dated 2018)
Where two headings read alike, the source gives them in different places. Numbered stars: 1 amine (or outer) side, 2 acyl side, 3 side chain; on linkers, the order of the positions; unused ones are H or OH. Square brackets hold non-standard residues; d marks the D form. Side chains are listed from the residue outwards. Peptide text beside a SMILES is read from it. * marks the point of attachment. γGlu = O=C(O)[C@H](CCC(=O)[*:2])N[*:1]; Palmitoyl = CCCCCCCCCCCCCCCC(=O)*; Aib = CC(C)(N)C(=O)O

Columns and labels:
human GIP R = target: T1, human GIP R (Homo sapiens, UniProt P48546); assay: Human GIP receptor (GIP R) activity assay, cAMP induction (AlphaScreen cAMP kit); format: cell-based
T1 construct: expressed in transfected cells
T1 sequence (P48546 22-466): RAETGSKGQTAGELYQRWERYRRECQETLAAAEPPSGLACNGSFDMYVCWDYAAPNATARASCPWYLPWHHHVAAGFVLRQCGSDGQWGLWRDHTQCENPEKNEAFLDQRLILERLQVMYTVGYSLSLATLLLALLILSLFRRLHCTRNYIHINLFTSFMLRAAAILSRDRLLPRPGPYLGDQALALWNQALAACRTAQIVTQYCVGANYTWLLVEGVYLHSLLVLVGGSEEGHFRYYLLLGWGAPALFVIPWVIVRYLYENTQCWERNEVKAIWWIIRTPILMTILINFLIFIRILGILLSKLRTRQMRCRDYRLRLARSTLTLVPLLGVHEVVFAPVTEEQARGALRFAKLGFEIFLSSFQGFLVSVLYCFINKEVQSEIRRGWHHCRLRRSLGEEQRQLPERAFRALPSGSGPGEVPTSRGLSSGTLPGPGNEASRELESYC
Experimental: (§1) Human GIP Receptor (GIP R) and GLP-1 Receptor (GLP-1 R) Activity Assay
(§2) In vitro effects of peptide conjugates of the invention were assessed by measuring the induction of cAMP following stimulation of the respective receptor by GIP, GLP1 or analogues of these, as outlined in the invention, using the AlphaSceen® cAMP kit from Perkin-Elmer according to instructions. Briefly. HEK293 cells expressing the human GIP R or GLP-1 R (stable cell lines generated through transfection of the cDNA for human GIP R or GLP-1 and selection of stable clones) were seeded at 30,000 cells/well in 96-well microtiter plates coated with 0.01% poly-L-lysine, and grown for 1 day in culture in 200 μl growth medium (DMEM, 10% FCS, Penicillin (100 IU/ml), Streptomycin (100 μg/ml)). On the day of analysis, growth medium was removed and the cells were washed once with […] Tyrode's buffer (Tyrode's Salts (9.6 g/1), 10 mM HEPES, pH 7.4). […] The Assay buffer was removed and cells are lysed in 80 μl Lysis buffer (0.1% w/v BSA, 5 mM HEPES, 0.3% v/v Tween-20) per well. From each well 10 μl lysed cells was transferred to a 384-well plate and mixed with 15 μl bead-mix (1 Unit/15 μl anti-cAMP Acceptor Beads, 1 Unit/15 μl Donor Beads, and 1 Unit/15 μl Biotinylated cAMP in Assay Buffer). The plates were mixed and incubated in the dark for an hour at room temperature before measuring using an Envision™ plate reader (Perkin-Elmer).

human GLP-1 R = target: T2, human GLP-1 R (Homo sapiens, UniProt P43220); assay: Human GLP-1 receptor (GLP-1 R) activity assay, cAMP induction (AlphaScreen cAMP kit); format: cell-based; conditions: HEK293 cells expressing the human GLP-1 R, 15 min at 37° C., average values of multiple determinations, read-out: GLP1 R (EC50 in nM)
T2 construct: expressed in transfected cells
T2 sequence (P43220 24-463): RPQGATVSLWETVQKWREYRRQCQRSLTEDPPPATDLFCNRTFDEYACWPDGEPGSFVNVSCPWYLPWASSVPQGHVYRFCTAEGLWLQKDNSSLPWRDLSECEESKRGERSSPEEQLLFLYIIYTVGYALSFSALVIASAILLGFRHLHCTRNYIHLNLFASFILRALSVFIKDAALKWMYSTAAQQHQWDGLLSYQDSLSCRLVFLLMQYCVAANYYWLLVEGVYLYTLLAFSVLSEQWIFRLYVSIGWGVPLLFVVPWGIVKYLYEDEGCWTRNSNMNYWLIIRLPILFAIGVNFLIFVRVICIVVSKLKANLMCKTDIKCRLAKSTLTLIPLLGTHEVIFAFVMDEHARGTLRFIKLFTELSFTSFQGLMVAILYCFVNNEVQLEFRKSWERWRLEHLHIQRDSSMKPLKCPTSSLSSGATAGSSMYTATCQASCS
Experimental: as §1, §2

[1] = HEK293 cells expressing the human GIP R, cAMP induction, 15 min at 37° C., average values of multiple determinations, read-out: GIP R (EC50 in nM)

Row | Structure (SMILES) | EC50 (human GLP-1 R) [nM] | also measured
1 | CC[C@H](C)[C@H](NC(=O)[C@H](CCCCN)NC(=O)[C@H](CCC(=O)O)NC(=O)[C@H](CC(C)C)NC(=O)[C@H](Cc1ccc(O)cc1)NC(=O)[C@@H](NC(=O)[C@H](CO)NC(=O)[C@H](Cc1ccc(O)cc1)NC(=O)[C@H](CC(=O)O)NC(=O)[C@H](CO)NC(=O)[C@@H](NC(=O)[C@H](Cc1ccccc1)NC(=O)[C@@H](NC(=O)CNC(=O)[C@H](CCC(=O)O)NC(=O)C(C)(C)NC(=O)[C@@H](N)Cc1ccc(O)cc1)[C@@H](C)O)[C@@H](C)CC)[C@@H](C)CC)C(=O)N[C@@H](C)C(=O)N[C@@H](C)C(=O)N[C@@H](CCCCN)C(=O)N[C@@H](CCC(=O)O)C(=O)N[C@@H](Cc1ccccc1)C(=O)N[C@H](C(=O)N[C@@H](CC(N)=O)C(=O)N[C@@H](Cc1c[nH]c2ccccc12)C(=O)N[C@@H](CC(C)C)C(=O)N[C@@H](CC(C)C)C(=O)N[C@@H](C)C(=O)N[C@@H](CCC(N)=O)C(=O)N[C@@H](CCCCN)C(N)=O)C(C)C [Compound 4] (H-Y[Aib]EGTFISDYSIYLEKIAAKEFVNWLLAQK-NH2) |  | EC50 (human GIP R): 0.022 nM
2 | CC[C@H](C)[C@H](NC(=O)[C@H](CO)NC(=O)[C@H](Cc1ccc(O)cc1)NC(=O)[C@H](CC(=O)O)NC(=O)[C@H](CO)NC(=O)[C@@H](NC(=O)[C@H](Cc1ccccc1)NC(=O)[C@@H](NC(=O)CNC(=O)[C@H](CCC(=O)O)NC(=O)C(C)(C)NC(=O)[C@@H](N)Cc1ccc(O)cc1)[C@@H](C)O)[C@@H](C)O)C(=O)N[C@@H](Cc1ccc(O)cc1)C(=O)N[C@@H](CO)C(=O)N[C@@H](CC(=O)O)C(=O)N[C@@H](CCCCN)C(=O)N[C@@H](CCCCN)C(=O)N[C@@H](C)C(=O)N[C@@H](CCC(N)=O)C(=O)N[C@@H](CCCNC(=N)N)C(=O)N[C@@H](C)C(=O)N[C@@H](Cc1ccccc1)C(=O)N[C@H](C(=O)N[C@@H](CC(N)=O)C(=O)N[C@@H](Cc1c[nH]c2ccccc12)C(=O)N[C@@H](CC(C)C)C(=O)N[C@@H](CC(C)C)C(=O)N[C@@H](C)C(=O)NC(C)(C)C(=O)N[C@@H](CCCCN)C(N)=O)C(C)C [Compound 13] (H-Y[Aib]EGTFTSDYSIYSDKKAQRAFVNWLLA[Aib]K-NH2) |  | EC50 (human GIP R; [1]): 0.14 nM
3 | CC[C@H](C)[C@H](NC(=O)[C@H](CO)NC(=O)[C@H](Cc1ccc(O)cc1)NC(=O)[C@H](CC(=O)O)NC(=O)[C@H](CO)NC(=O)[C@@H](NC(=O)[C@H](Cc1ccccc1)NC(=O)[C@@H](NC(=O)CNC(=O)[C@H](CCC(=O)O)NC(=O)C(C)(C)NC(=O)[C@@H](N)Cc1ccc(O)cc1)[C@@H](C)O)[C@@H](C)O)C(=O)N[C@@H](Cc1ccc(O)cc1)C(=O)N[C@@H](CC(C)C)C(=O)N[C@@H](CC(=O)O)C(=O)N[C@@H](CCCCN)C(=O)N[C@@H](CCCCN)C(=O)N[C@@H](C)C(=O)N[C@@H](CCC(N)=O)C(=O)N[C@@H](CCCCN)C(=O)N[C@@H](CCC(=O)O)C(=O)N[C@@H](Cc1ccccc1)C(=O)N[C@H](C(=O)N[C@@H](CC(N)=O)C(=O)N[C@@H](Cc1c[nH]c2ccccc12)C(=O)N[C@@H](CC(C)C)C(=O)N[C@@H](CC(C)C)C(=O)N[C@@H](C)C(=O)NC(C)(C)C(=O)N[C@@H](CCCCN)C(N)=O)C(C)C [Compound 19] (H-Y[Aib]EGTFTSDYSIYLDKKAQKEFVNWLLA[Aib]K-NH2) |  | EC50 (human GIP R; [1]): 0.015 nM
4 | CCCCCCCCCCCCCCCC(=O)N[C@@H](CCC(=O)NCCCC[C@H](NC(=O)[C@H](CO)NC(=O)[C@H](CC(=O)O)NC(=O)[C@H](CC(C)C)NC(=O)[C@H](Cc1ccc(O)cc1)NC(=O)[C@H](CCCCN)NC(=O)[C@H](CO)NC(=O)[C@H](Cc1ccc(O)cc1)NC(=O)[C@H](CC(=O)O)NC(=O)[C@H](CO)NC(=O)[C@@H](NC(=O)[C@H](Cc1ccccc1)NC(=O)[C@@H](NC(=O)CNC(=O)[C@H](CCC(=O)O)NC(=O)C(C)(C)NC(=O)[C@@H](N)Cc1ccc(O)cc1)[C@@H](C)O)[C@@H](C)O)C(=O)N[C@@H](C)C(=O)N[C@@H](C)C(=O)N[C@@H](Cc1c[nH]cn1)C(=O)N[C@@H](CC(=O)O)C(=O)N[C@@H](Cc1ccccc1)C(=O)N[C@H](C(=O)N[C@@H](CCC(=O)O)C(=O)N[C@@H](Cc1c[nH]c2ccccc12)C(=O)N[C@@H](CC(C)C)C(=O)N[C@@H](CC(C)C)C(=O)N[C@@H](CO)C(=O)N[C@@H](C)C(N)=O)C(C)C)C(=O)O [Compound 45] (H-Y[Aib]EGTFTSDYSKYLDSK([γGlu-Palmitoyl])AAHDFVEWLLSA-NH2) | 0.11 | 
5 | CCCCCCCCCCCCCCCC(=O)N[C@@H](CCC(=O)NCCCC[C@H](NC(=O)[C@H](CCC(=O)O)NC(=O)[C@H](CC(=O)O)NC(=O)[C@H](CC(C)C)NC(=O)[C@H](Cc1ccc(O)cc1)NC(=O)[C@@H](NC(=O)[C@H](CO)NC(=O)[C@H](Cc1ccc(O)cc1)NC(=O)[C@H](CC(=O)O)NC(=O)[C@H](CO)NC(=O)[C@@H](NC(=O)[C@H](Cc1ccccc1)NC(=O)[C@@H](NC(=O)CNC(=O)[C@H](CCC(=O)O)NC(=O)C(C)(C)NC(=O)[C@@H](N)Cc1ccc(O)cc1)[C@@H](C)O)[C@@H](C)O)[C@@H](C)CC)C(=O)N[C@@H](C)C(=O)N[C@@H](C)C(=O)N[C@@H](CCCCN)C(=O)N[C@@H](CC(=O)O)C(=O)N[C@@H](Cc1ccccc1)C(=O)N[C@H](C(=O)N[C@@H](CCC(=O)O)C(=O)N[C@@H](Cc1c[nH]c2ccccc12)C(=O)N[C@@H](CC(C)C)C(=O)N[C@@H](CCC(=O)O)C(=O)N[C@@H](CO)C(=O)N[C@@H](C)C(N)=O)C(C)C)C(=O)O [Compound 48] (H-Y[Aib]EGTFTSDYSIYLDEK([γGlu-Palmitoyl])AAKDFVEWLESA-NH2) | 0.041 | 
6 | CCCCCCCCCCCCCCCC(=O)N[C@@H](CCC(=O)NCCCC[C@H](NC(=O)[C@H](CO)NC(=O)[C@H](CC(=O)O)NC(=O)[C@H](CC(C)C)NC(=O)[C@H](Cc1ccc(O)cc1)NC(=O)[C@H](CCCCN)NC(=O)[C@H](CO)NC(=O)[C@H](Cc1ccc(O)cc1)NC(=O)[C@H](CC(=O)O)NC(=O)[C@H](CO)NC(=O)[C@@H](NC(=O)[C@H](Cc1ccccc1)NC(=O)[C@@H](NC(=O)CNC(=O)[C@H](CCC(=O)O)NC(=O)C(C)(C)NC(=O)[C@@H](N)Cc1ccc(O)cc1)[C@@H](C)O)[C@@H](C)O)C(=O)N[C@@H](C)C(=O)N[C@@H](C)C(=O)N[C@@H](Cc1c[nH]cn1)C(=O)N[C@@H](CC(=O)O)C(=O)N[C@@H](Cc1ccccc1)C(=O)N[C@H](C(=O)N[C@@H](CCC(=O)O)C(=O)N[C@@H](Cc1c[nH]c2ccccc12)C(=O)N[C@@H](CC(C)C)C(=O)N[C@@H](CC(C)C)C(=O)N[C@@H](CCCNC(=N)N)C(=O)N[C@@H](C)C(N)=O)C(C)C)C(=O)O [Compound 51] (H-Y[Aib]EGTFTSDYSKYLDSK([γGlu-Palmitoyl])AAHDFVEWLLRA-NH2) | 0.11 | 
7 | CC[C@H](C)[C@H](NC(=O)[C@H](CO)NC(=O)[C@H](Cc1ccc(O)cc1)NC(=O)[C@H](CC(=O)O)NC(=O)[C@H](CO)NC(=O)[C@@H](NC(=O)[C@H](Cc1ccccc1)NC(=O)[C@@H](NC(=O)CNC(=O)[C@H](CCC(=O)O)NC(=O)C(C)(C)NC(=O)[C@@H](N)Cc1ccc(O)cc1)[C@@H](C)O)[C@@H](C)O)C(=O)N[C@@H](Cc1ccc(O)cc1)C(=O)N[C@@H](CC(C)C)C(=O)N[C@@H](CC(=O)O)C(=O)N[C@@H](CO)C(=O)N[C@@H](CCCCN)C(=O)N[C@@H](C)C(=O)N[C@@H](C)C(=O)N[C@@H](Cc1c[nH]cn1)C(=O)N[C@@H](CC(=O)O)C(=O)N[C@@H](Cc1ccccc1)C(=O)N[C@H](C(=O)N[C@@H](CCC(=O)O)C(=O)N[C@@H](Cc1c[nH]c2ccccc12)C(=O)N[C@@H](CC(C)C)C(=O)N[C@@H](CC(C)C)C(=O)N[C@@H](CO)C(=O)N[C@@H](C)C(=O)NCC(=O)N1CCC[C@H]1C(=O)N[C@@H](CO)C(=O)N[C@@H](CO)C(=O)NCC(=O)N[C@@H](C)C(=O)N1CCC[C@H]1C(=O)N1CCC[C@H]1C(=O)N1CCC[C@H]1C(=O)N[C@@H](CO)C(N)=O)C(C)C [Compound 55] (H-Y[Aib]EGTFTSDYSIYLDSKAAHDFVEWLLSAGPSSGAPPPS-NH2) | 0.0087 | 
